Data reported in patent US11129782B2, “Derivatives of PPD useful for coloring hair and skin” (National University of Singapore, priority 2017, dated 2021).

Experiments:
[1] = test system: lysine peptide (Ac-RFAAKAA-COOH); assay: Direct Peptide Reactivity Assay, lysine peptide; conditions: for % of Lysine depletion, Avg / % of Lysine depletion, Rep 2 / % of Lysine depletion, Rep 3 / Reactivity Class: 1:50; for % of Lysine depletion, Rep 1: peptide 0.02 mM : test chemical 1 mM (1:50); for Reactivity Class: lysine
Experimental: The mass spectrometric analysis was performed by use of a AB SCIEX QTRAP 5500 tandem mass spectrometry (MS/MS) system (AB SCIEX, Framingham, Mass., USA) operating in triple quadrupole positive mode (ESI+) equipped with an AB Sciex Turbo Ion Spray interface. Acquisition and analysis of data were performed with Analyst software ver. 1.6.2 (Applied Biosystems).

sensitized patients = assay: Patch test with 1% PPD formulation in paraffin; type: in vivo, human; conditions: 1% PPD patch test formulation in paraffin
Description: (§1) This is true even after 2 days of patch test as the test field remains colourless.
Thus there remains a need for hair and temporary skin colourings that avoid such allergic responses and may be suitable for use in subjects who show sensitivity to conventional colouring materials.

[2] = Oxidation stability of 1% PPD patch test formulation in paraffin (mass spectrometry); type: physicochemical; conditions: several days in air
Description: as §1

[3] = Skin permeation in vertical Franz diffusion cells; type: in vitro ADME, porcine
How it was run: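 Dermatomed porcine ear skin (~1.0 mm, barrier checked by TEWL) in vertical Franz cells at 37 °C, 0.64 cm^2 area, PBS receptor, donor of 1% w/v solutions in argon-purged water (n=3). Receptor sampled over 8 h with mass balance, LCMS quantification; flux and permeability coefficients from steady-state Fick's law fits.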

Nc1ccc(N)cc1 [PPD, para-phenylenediamine, reference compound]
% of Lysine depletion, Avg ([1]; 20 min): 14.6% | % of Lysine depletion, Rep 2 ([1]; 20 min): 14.4% | % of Lysine depletion, Rep 3 ([1]; 20 min): 14.6% | % of Lysine depletion, Rep 1 ([1]; 20 min): 14.9% | % of Lysine depletion, Avg ([1]; 24 h): 33.3% | % of Lysine depletion, Rep 2 ([1]; 24 h): 33.1% | % of Lysine depletion, Rep 3 ([1]; 24 h): 33.9% | % of Lysine depletion, Rep 1 ([1]; 24 h): 32.8% | Reactivity Class ([1]; 20 min): Low | Reactivity Class ([1]; 24 h): Moderate | Skin reaction of sensitized patients (sensitized patients): clear localised contact dermatitis | Oxidation stability in paraffin [2]: protected against oxidation | % Parent compound Penetrated (mean) ([3]; 1% W/V applied, 8 h): 0.162% | % converted to metabolite (mean) ([3]; 1% W/V applied, 8 h): 3.17% | Mass balance in the Franz cells ([3]; 8 h): > 99% | Jss · 10^4 (steady state flux) ([3]; mean): 4.3 mg cm^−2 h^−1 | tlag (lag time) ([3]; mean): 4.2 h | recovery at 8 h, 1 % w/v ([3]; pig, 1% W/V applied, 8 h, read-out: % Parent compound Recovery (mean)): 90.3% | Papp at 8 h, 1 % w/v ([3]; pig, mean, read-out: kp · 10^5 (steady state permeability coefficient) (converted)): 11900 nm/s | Dm · 10^4 (diffusion coefficient in skin) ([3]; steady state, mean): 5.00 cm^−2 h^−1 | Ks/d (skin-donor partition coefficient) ([3]; steady state, mean, 1% w/v in water, 8 h): 0.010
